Assay results reported in article PMC5069304 (Clinical Pharmacokinetics, 2016).

Legend:
[1] = Population pharmacokinetic analysis of plasma liraglutide; type: in vivo, human
[2] = Exposure assessment for dose proportionality, phase II dose-finding trial; type: in vivo, human
[3] = 60 kg subject vs reference subject weighing 100 kg
[4] = 234 kg subject vs reference subject weighing 100 kg

- CL/F lower than in reference subject [1, 3]: 29%
- liraglutide exposure higher than in reference subject [1, 3]: 41%
- CL/F higher than in reference subject [1, 4]: 78%
- liraglutide exposure lower than in reference subject [1, 4]: 44%
- liraglutide exposure lower in subjects with T2DM than in normoglycaemic subjects ([1]; confounded by trial (all T2DM subjects from Trial 2)): 16%
- higher exposure in Trial 1 than in Trial 2 ([1]; liraglutide 3.0 mg): 29%
- geometric mean of the individual apparent clearance estimates ([2]; Trial 3): 0.93 L/h
SMILES: CCCCCCCCCCCCCCCC(=O)N[C@@H](CCC(=O)NCCCC[C@H](NC(=O)[C@H](C)NC(=O)[C@H](C)NC(=O)[C@H](CCC(N)=O)NC(=O)CNC(=O)[C@H](CCC(=O)O)NC(=O)[C@H](CC(C)C)NC(=O)[C@H](Cc1ccc(O)cc1)NC(=O)[C@H](CO)NC(=O)[C@H](CO)NC(=O)[C@@H](NC(=O)[C@H](CC(=O)O)NC(=O)[C@H](CO)NC(=O)[C@@H](NC(=O)[C@H](Cc1ccccc1)NC(=O)[C@@H](NC(=O)CNC(=O)[C@H](CCC(=O)O)NC(=O)[C@H](C)NC(=O)[C@@H](N)Cc1cnc[nH]1)[C@@H](C)O)[C@@H](C)O)C(C)C)C(=O)N[C@@H](CCC(=O)O)C(=O)N[C@@H](Cc1ccccc1)C(=O)N[C@H](C(=O)N[C@@H](C)C(=O)N[C@@H](Cc1c[nH]c2ccccc12)C(=O)N[C@@H](CC(C)C)C(=O)N[C@H](C(=O)N[C@@H](CCCNC(=N)N)C(=O)NCC(=O)N[C@@H](CCCNC(=N)N)C(=O)NCC(=O)O)C(C)C)[C@@H](C)CC)C(=O)O [liraglutide, Liraglutide]
- liraglutide exposure lower in males than in females ([1]; comparable body weight): 24%
- liraglutide exposure higher in females than males ([1]; same/comparable body weight): 32%
- dose proportionality of model-derived AUC by dose ([2]; obese individuals, 1.2, 1.8, 2.4, 3.0 mg once daily, week 20): supported dose proportionality of liraglutide up to and including 3.0 mg
